Source: ChEMBL document CHEMBL1129102, “Design, synthesis, and evaluation of fibrinogen inhibitors, -(p-amidinophenoxy) alkanoylaspartic acid derivatives” (Bioorg Med Chem Lett, 1996)

Biological target: Integrin alpha-IIb/beta-3 (Homo sapiens, UniProt P05106+P08514)
Test: Inhibition of human platelet adhesion to fibrinogen

Integrin alpha-IIb/beta-3, sequence (P05106 27-788 limits assumed): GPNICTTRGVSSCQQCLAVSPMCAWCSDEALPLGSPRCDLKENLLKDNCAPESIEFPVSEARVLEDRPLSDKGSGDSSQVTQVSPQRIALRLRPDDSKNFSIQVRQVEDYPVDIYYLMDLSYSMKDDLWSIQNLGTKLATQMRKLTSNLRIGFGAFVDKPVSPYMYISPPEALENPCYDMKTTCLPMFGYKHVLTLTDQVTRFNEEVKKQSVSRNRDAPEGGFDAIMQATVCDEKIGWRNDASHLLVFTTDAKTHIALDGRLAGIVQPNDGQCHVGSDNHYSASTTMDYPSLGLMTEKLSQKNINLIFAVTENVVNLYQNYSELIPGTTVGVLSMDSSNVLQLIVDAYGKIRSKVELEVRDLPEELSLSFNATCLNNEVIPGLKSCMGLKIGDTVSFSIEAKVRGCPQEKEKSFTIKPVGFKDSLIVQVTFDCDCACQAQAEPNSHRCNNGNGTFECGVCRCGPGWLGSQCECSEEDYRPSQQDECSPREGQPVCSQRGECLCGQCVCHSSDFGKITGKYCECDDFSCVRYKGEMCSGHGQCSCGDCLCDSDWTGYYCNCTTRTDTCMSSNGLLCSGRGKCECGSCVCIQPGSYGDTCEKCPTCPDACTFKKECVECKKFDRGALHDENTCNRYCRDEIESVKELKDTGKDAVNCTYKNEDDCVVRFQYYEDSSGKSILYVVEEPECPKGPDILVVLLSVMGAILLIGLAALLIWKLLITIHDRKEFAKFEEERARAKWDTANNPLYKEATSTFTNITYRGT
Integrin alpha-IIb/beta-3, sequence (P08514 32-887 limits assumed): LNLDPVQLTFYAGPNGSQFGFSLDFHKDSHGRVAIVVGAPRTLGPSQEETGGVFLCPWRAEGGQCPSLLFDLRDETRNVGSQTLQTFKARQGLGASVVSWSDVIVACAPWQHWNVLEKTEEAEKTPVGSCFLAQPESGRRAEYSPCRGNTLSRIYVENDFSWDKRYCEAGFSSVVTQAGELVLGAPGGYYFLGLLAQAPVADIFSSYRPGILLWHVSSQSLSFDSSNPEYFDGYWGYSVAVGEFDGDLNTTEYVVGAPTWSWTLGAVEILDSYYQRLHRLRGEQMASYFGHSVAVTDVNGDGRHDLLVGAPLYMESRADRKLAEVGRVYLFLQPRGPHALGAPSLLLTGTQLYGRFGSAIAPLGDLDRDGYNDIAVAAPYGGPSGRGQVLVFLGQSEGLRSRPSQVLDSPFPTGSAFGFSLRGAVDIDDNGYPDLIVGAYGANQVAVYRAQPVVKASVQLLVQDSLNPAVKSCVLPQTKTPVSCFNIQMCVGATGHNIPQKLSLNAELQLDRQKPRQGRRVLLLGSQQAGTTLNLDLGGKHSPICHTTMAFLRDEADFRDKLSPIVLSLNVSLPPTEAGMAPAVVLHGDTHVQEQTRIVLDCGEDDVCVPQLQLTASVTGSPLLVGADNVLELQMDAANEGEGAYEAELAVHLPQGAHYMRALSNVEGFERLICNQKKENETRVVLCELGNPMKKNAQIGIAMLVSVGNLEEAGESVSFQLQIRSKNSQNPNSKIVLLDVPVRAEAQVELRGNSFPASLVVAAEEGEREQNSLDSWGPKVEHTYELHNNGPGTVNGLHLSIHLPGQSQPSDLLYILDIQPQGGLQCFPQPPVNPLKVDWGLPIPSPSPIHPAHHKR
Integrin alpha-IIb/beta-3, sequence (P08514 891-1039 limits assumed): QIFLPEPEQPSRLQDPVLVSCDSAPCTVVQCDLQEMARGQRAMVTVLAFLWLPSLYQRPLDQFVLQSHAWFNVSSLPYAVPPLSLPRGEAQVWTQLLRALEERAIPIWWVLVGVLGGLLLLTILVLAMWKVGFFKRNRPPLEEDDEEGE

Row | IC50 [nM] | Compound
1 | 270 | CN(C(=O)[C@H](CC(=O)O)NC(=O)CCCCOc1ccc(C(=N)N)cc1)[C@@H](Cc1ccc(O)cc1)C(=O)O
2 | 230 | CC(C)[C@H](NC(=O)[C@H](CC(=O)O)NC(=O)CCCCOc1ccc(C(=N)N)cc1)C(=O)O
3 | 640 | N=C(N)c1ccc(OCCCCC(=O)N[C@@H](CC(=O)O)C(=O)N[C@@H](Cc2ccc(O)cc2)C(=O)O)cc1
4 | 88 | CC(C)[C@H](NC(=O)[C@H](CC(=O)O)NC(=O)CCCOc1ccc(C(=N)N)cc1)C(=O)O
